Read-outs that look alike come from different tables or passages of the source.

For data set [1], the system named is LPS-induced NO production in RAW 264.7 cells. In words: NO assay: nitrite quantification (Griess) in LPS-stimulated macrophages. It counts as cell-based, murine. Particulars: Mus musculus, RAW264.7, LPS 200 ng/mL, 24 h, read-out: EC50 against NO assay. Here is the method: NO2^− accumulation was used as an indicator of NO production as described previously. RAW 264.7 cells were plated at 5 × 10^5 cells/mL, pre-treated with various concentrations (0.3, 1, 3, 10 or 30 μg/mL) of 1–7 and stimulated with LPS (200 ng/mL) for 24 h. The supernatants were mixed with an equal volume of Griess reagent (1% sulfanilamide, 0.1% naphthylethylenediamine dihydrochloride and 2% phosphoric acid) and incubated at room temperature for 10 min. NaNO2 was used to generate a standard curve, and the concentration of nitrite in the medium was determined by measuring optical density at 540 nm. Cell viability was determined by XTT assay as described previously. And it was confirmed that the concentration of compounds used in this study has no significant effect on cell viability.
Background: The Griess reaction detects nitrite, a stable product of nitric oxide.

Data set [2] can be described thus: Stability to light and on storage (observation).

By EC50 is commonly meant the concentration needed to bring the measured effect to its halfway point. In the case of `CC(OC(=O)c1ccccc1N)c1cccc2nc3c(C(=O)O)cccc3nc12` (centres unmarked) [Compound 1, 6-[1-(2-aminobenzoyloxy)ethyl]-1-phenazinecarboxylic acid], the values for the EC50 in data set [1] (compounds 0.3-30 μg/mL) and in data set [1] were 18.1 mg/L and 46.8 µM, respectively. The storage stability result in data set [2] (in the dark and fridge) is “changelessly stored in the dark and fridge for several weeks”. Also, the “stability under the light” value in data set [2] (under the light) is “easily changed under the light”.
Take `CC(=O)c1cccc2nc3c(C(=O)O)cccc3nc12` [Compound 7, 6-acetyl-phenazine-1-carboxylic acid]: the EC50 in data set [1] (compounds 0.3-30 μg/mL) was 5.32 mg/L; in data set [1] it was 20 µM.
The corresponding values for `C[C@@H](O)c1cccc2nc3c([C@@H](C)O)cccc3nc12` [Compound 3, saphenol] are 14.7 mg/L and 54.7 µM.
Regarding `C[C@@H](O)c1cccc2nc3c(C(N)=O)cccc3nc12` [Compound 2, saphenic amide], the EC50 in data set [1] (compounds 0.3-30 μg/mL) is > 30 mg/L.
Regarding `CO[C@H](C)c1cccc2nc3c(C(=O)O)cccc3nc12` [Compound 6], the EC50 in data set [1] (compounds 0.3-30 μg/mL) turned out to be 5.53 mg/L; in data set [1], 19.6 µM.
For `O=C(O)c1cccc2nc3ccccc3nc12` [Compound 5, phenazine-1-carboxylic acid], the half-maximal effective concentration (EC50) in data set [1] (compounds 0.3-30 μg/mL) worked out at 17.1 mg/L; in data set [1], 76.1 µM.
As for `C[C@@H](O)c1cccc2nc3c(C(=O)O)cccc3nc12` [Compound 4, (R)-saphenic acid], the values for the half-maximal effective concentration (EC50) in data set [1] (compounds 0.3-30 μg/mL) and in data set [1] were 6.15 mg/L and 22.9 µM, respectively. Moreover, in data set [2] (day light as well as fluorescent light, also previously reported [9]), the “colour change of yellow needle form in light” value is on record as “turned brown after several hours”. Further, in data set [2] (methanol and dimethyl sulfoxide, under the light), the “colour change in hydrophilic solvents under the light” value was “quickly turned from yellow into orange”.

(Values after publication PMC6722648, “Phenazine Derivatives with Anti-Inflammatory Activity from the Deep-Sea Sediment-Derived Yeast-Like Fungus Cystobasidium laryngis IV17-028” (Marine Drugs, 2019).)
